# Reference: patent US8541444B2, “Triazolopyridine 11-beta hydroxysteroid dehydrogenase type I inhibitors” (Bristol-Myers Squibb Company, priority 2007, dated 2013)
# Target: T1, recombinant human 11beta-HSD1 (Homo sapiens, UniProt P28845)
# T1 construct: Full length recombinant human 11β-HSD1 cDNAs and the cDNA encoding human 11β-HSD2 were expressed stably in HEK 293 EBNA cells; made in house; microsome fraction used
# Experiment: 11β-HSD1 SPA enzyme assay (in vitro inhibition of recombinant human 11beta-HSD1)
# Assay type: biochemical
# Settings: human 11β-HSD1 microsomes from HEK 293 EBNA cells, 3H-cortisone 40 nM, 4 hrs room temperature
# Experimental: The in vitro inhibition of recombinant human 11beta-HSD1 was determined as follows.
# The supernatant was further centrifuged at 105,000×g for […]. The 105,000×g pellet was resuspended in buffer H and centrifuged at 105,000×g for 60 min. […] Aliquots were stored at −80° C. until needed. The protein concentration was measured by the BioRad method using BSA standard.
# Compounds were dissolved in DMSO to obtain 10 mM stock concentrations. From the 10 mM stock, the compounds were diluted in DMSO to achieve the concentrations.
# 11β-HSD1 SPA Enzyme Assay
# 11β-HSD1 was assayed by Scintillation Proximity assay in a 384-well Perkin Elmer white plate. The dose response of the compounds was determined using 11 half-log dilutions of compound in DMSO in duplicate. To each well, 0.5 μl of compound dilution in DMSO were added. 15 μl of assay buffer (for blanks) or 15 μl of human microsomes in assay buffer were added next and the plates were incubated for 10 min at room temperature. The final microsomal protein concentration was 1.1 μg/assay. Duplicates were in the same plate one row below the other. 10 μl of ^3H-cortisone (final concentration 40 nM) was added to each well and the plate was spun down to mix and bring down the contents to the bottom of the wells. The plates were incubated at room temperature with gentle shaking for 4 hrs. […] Then, 0.5 mg of yttrium silicate SPA beads coupled to anti-cortisol antibody in 20 μl were added to all the wells of plate, which were spun down once more and incubated at room temperature overnight. The plate was read in a TopCount® (1 min/well). Data were uploaded automatically to Tool Set, a Lead Evaluation informatics program for data capture and calculation. Graphs were generated with the Curve Master program.
# T1 sequence (P28845 whole entry): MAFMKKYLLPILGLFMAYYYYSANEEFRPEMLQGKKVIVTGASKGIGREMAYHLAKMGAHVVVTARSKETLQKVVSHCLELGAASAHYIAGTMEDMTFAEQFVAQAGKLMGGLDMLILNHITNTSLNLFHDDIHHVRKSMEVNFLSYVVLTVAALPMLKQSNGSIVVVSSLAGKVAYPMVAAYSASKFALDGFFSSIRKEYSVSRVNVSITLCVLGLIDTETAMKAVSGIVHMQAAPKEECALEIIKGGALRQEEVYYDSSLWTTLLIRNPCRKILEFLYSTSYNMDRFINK
row,IC50 [nM],Structure (SMILES)
1,2.3,"CC(C)(O)c1cccn2c(C3(c4ccc(Cl)cc4)CC3)nnc12 [Example 1, 2-(3-(1-(4-Chlorophenyl)cyclopropyl)-[1,2,4]triazolo[4,3-a]pyridin-8-yl) propan-2-ol]"
2,20,"CC(C)(O)c1cccc2c(C3(c4ccc(Cl)cc4)CC3)nnn12 [Example 6, 2-(3-(1-(4-Chlorophenyl)cyclopropyl)-[1,2,3]-triazolo[1,5-a]pyridin-7-yl) propan-2-ol]"
3,72,CC(C)(O)c1cccn2c(C3(c4ccc(Cl)c(Cc5nnn[nH]5)c4)CC3)nnc12 [Example 42]
4,0.4,CC(C)(O)c1cccn2c(C3(c4ccc(-c5ccc(F)cc5)cc4)CC3)nnc12 [Example 51]
5,0.7,CC(C)(O)c1cccn2c(C3(c4ccc(Cl)cc4F)CC3)nnc12 [Example 54]
6,5490,CC(C)(c1cccn2c(C3(c4ccc(Cl)cc4)CCC3)nnc12)c1nnnn1CCC#N [Example 59]
7,7700,CC(C)(O)c1cccn2c(C3(C(=O)O)CC3)nnc12 [Example 80]
8,35,CN(C)C(=O)c1ccc(C2(c3nnc4c(C(C)(C)O)cccn34)CC2)cc1 [Example 86]
9,1380,Cc1ccc(S(=O)(=O)C2(c3nnc4c(C(C)(C)O)cccn34)CC2)cc1C [Example 90]
10,191,CC(C)(O)c1cccn2c(C3(c4nc(-c5ccccc5)c[nH]4)CC3)nnc12 [Example 104]
11,0.6,CC(C)(O)c1cccn2c(C3(c4nc(-c5ccc(F)cc5)cs4)CC3)nnc12 [Example 109]
12,104,CC(C)(O)c1cccn2c(C3(c4nnn(Cc5ccc(F)cc5)n4)CC3)nnc12 [Example 110]
13,0.5,CC(C)(O)c1cccn2c(C3(c4nc(-c5ccc(Cl)cc5)cs4)CC3)nnc12 [Example 111]
14,2820,CC(C)(O)c1cccn2c(C3(c4nnn(Cc5ccccc5)n4)CC3)nnc12 [Example 112]

# Target: T2, 11beta-HSD1 (Mus musculus, UniProt P50172)
# T2 construct: from tissue; host or cells: whole animal: diet induced obese (DIO) mice, Jackson Laboratory
# Experiment: In vivo inhibition of 11beta-HSD1: DHC to corticosterone conversion in DIO mice
# Settings: 30 mpk oral, plasma corticosterone AUC after DHC 10 mg/kg given 60 minutes post compound
# Experimental: The in vivo inhibition of […] 11beta-HSD1 was determined as follows.
# Studies were conducted utilizing diet induced obese (DIO) mice obtained from Jackson Laboratory (ME, USA). These mice were fed a 60% fat diet (Research Diets D12492) soon after weaning and kept on this diet for 24 weeks. These mice were individually housed. […]. The animals continued on this diet and were utilized for experimentation at 30 to 32 weeks of age, at which time these mice weighed 45 to 55 grams.
# The basic model of 11-dehydrocorticosterone (DHC) administration to mice to produce corticosterone has been reported in the literature for clinical and preclinical evaluation of the activity of 11β-HSD. […] Plasma was separated and collected and immediately frozen at −20° C. until corticosterone analysis could be assessed.
# Plasma Corticosterone was measured using an EIA (IDS AC-14F1). Samples were measured at (1:2) for the −30(or −60 minute) and 0 time point and (1:10) for the 30, 60 and 120 minutes time points. AUC was calculated using Graphpad and the zero timepoint was used as the baseline. One way ANOVA was calculated using Sigmastat. […]
# The vehicle utilized for the suspension of the compounds was 0.5% methocel; 0.1% tween 80 in water. […] Compounds were administered in 7.5 ml/kg volumes at final dosages of 0.1 to 300 mg/kg depending on the study and compound evaluated.
# T2 sequence (P50172 whole entry): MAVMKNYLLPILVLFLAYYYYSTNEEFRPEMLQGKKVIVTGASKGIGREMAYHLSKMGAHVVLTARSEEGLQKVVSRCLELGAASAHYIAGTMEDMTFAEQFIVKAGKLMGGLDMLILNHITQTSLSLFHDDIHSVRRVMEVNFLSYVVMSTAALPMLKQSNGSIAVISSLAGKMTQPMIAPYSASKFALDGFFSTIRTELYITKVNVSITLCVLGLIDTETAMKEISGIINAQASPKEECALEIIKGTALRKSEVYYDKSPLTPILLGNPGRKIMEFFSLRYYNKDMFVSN
row,inhibition at 30 mg/kg [%],Structure (SMILES)
1,53,"CC(C)(O)c1cccn2c(C3(c4ccc(Cl)cc4)CC3)nnc12 [Example 1, 2-(3-(1-(4-Chlorophenyl)cyclopropyl)-[1,2,4]triazolo[4,3-a]pyridin-8-yl) propan-2-ol]"
2,69,CC(C)(O)c1cccn2c(C3(c4ccc(Cl)cc4)CCC3)nnc12 [Example 11]

# Test system: not listed separately
# Experiment: Moisture sorption study
# Assay type: physicochemical
# Settings: Form N-1 of the HCl salt; range from about 25 to about 75% RH at 25° C.
# Experimental: Moisture sorption isotherms were collected in a VTI SGA-100 Symmetric Vapor Analyzer using approximately 10 mg of sample. The sample was dried at 60° C. until the loss rate of 0.0005 wt %/min was obtained for 10 minutes. The sample was tested at 25° C. and 3 or 4, 5, 15, 25, 35, 45, 50, 65, 75, 85, and 95% RH. Equilibration at each RH was reached when the rate of 0.0003 wt %/min for 35 minutes was achieved or a maximum of 600 minutes.
row,hygroscopicity (moisture sorption isotherm),Structure (SMILES)
1,non-hygroscopic,"CC(C)(O)c1cccn2c(C3(c4ccc(Cl)cc4)CC3)nnc12.Cl [Example 1G, 2-(3-(1-(4-Chlorophenyl)cyclopropyl)-[1,2,4]triazolo[4,3-a]pyridin-8-yl)propan-2-ol HCl Salt]"
